Measurements from US4567200A, “Esters of mercapto acyl-carnitines and pharmaceutical compositions containing same” (Sigma-Tau Industrie Farmaceutiche Riunite S.p.A., priority 1981, dated 1986).
Structures can show the parent of a compound that is named as a salt.

Experiments:
[1] = Acute toxicity in the mouse, Weil method; conditions: in vivo, ip
Text: The acute toxicity of the compounds of general formula (I) has been studied in the mouse with the Weil method (Weil C.S., Biometr. J. 8, 249, 1952).
The LD50 values of some compounds illustrated in Table I, indicate that the compounds are remarkably well tolerated.
LD50, mg Kg^-1, ep in mice of some mercapto
acyl-carnitine esters of general formula (I).
Weil's method (N = 5, K = 4)

[2] = Expectorant activity (bronchial secretion), method of Perry et al.; format: in vivo, male rabbits; conditions: rabbits
Method: The tests were carried out on male rabbits, weighing 2-3 Kg, anesthetized with ethyl urethane, by following the method disclosed by Perry et al. (J. Pharm. Exp. Ther. 73, 65, 1941).
Each cannula was connected to a feeding device which delivered a steady flow-rate of pre-heated air (36°-38° C.) at constant humidity (80%). At the lower end of each cannula, a graduated cylinder was fitted, wherein the bronchial secretion was collected. All of the animals breathed spontaneously and consequently they self-regulated the air intake suitable for normal respiration. After an hour following cannula insertion, the animals were administered orally (by stomach tube) the compounds of general formula (I) dissolved in distilled water at the doses indicated in Table IV. Each dose of drug was administered to 5 animals. The control animals (8) were given water only. The amount of secretion was determined after 1, 2 and 4 hours from administration.

[3] = Cutaneous regeneration from burns in rabbits; format: in vivo; conditions: 25 mg Kg^-1 oral once a day for seven days
Method: The ability of the compounds of formula (I) to speed up the cutaneous regeneration from burns has been tested in rabbits.
A 4 cm^2 cutaneous area of the average-top zone of the test animal back was burned.
The compounds were orally administered in aqueous solution at the dose of 25 mg Kg^-1 once a day for seven days. The area of cutaneous regeneration, i.e., the area of the newly formed tissue was then measured (Table III).

[4] = Mucolytic activity in vitro, thromboelastograph, method of Morandini et al.; conditions: human sputum
Method: The tests were carried out in vitro by using the method disclosed by Morandini et al. (Lotta contro la tubercolosi 47, n. 4, 1977). A thromboelastograph was used to follow the variations induced by the compounds of general formula (I) and acetylcysteine on the rheological properties of human sputum.

[5] = Protection against X-ray exposure, survival of irradiated rats; format: in vivo, Albino Wister rats; conditions: 20-25 mg Kg^-1 1 hour before irradiation and 10 mg Kg^-1 per day in subsequent 20 days
Method: The effect of the compounds of formula (I) towards the damages provoked by X-ray exposure was studied.
The experiment animals, Albino Wister rats, treated with the compounds under examination (20-25 mg Kg^-1 1 hour before irradiation and 10 mg Kg^-1 per day in the subsequent 20 days) were irradiated and checked over a time period to detect the onset of toxic effects and the time of survival with respect to the control group.
In table II, the percentage of survival at the 10th, 15th and 20th day from irradiation are reported.

[6] = 1 ml of a 10% solution at dilution 1/30
[7] = 1 ml of a 10% solution at dilution 1/60

Row | SMILES | LD50 [1] [mg/kg] | Percentage variations of bronchial secretion versus values ([2]; oral 15 mg, 2 hours) | Percentage variations of bronchial secretion versus values ([2]; oral 15 mg, 4 hours) | Percentage of regenerated tissue ([3]; 4th day from treatment) [%] | Percentage of regenerated tissue ([3]; 8th day from treatment) [%] | Percentage drop ± s.e. of the tracing versus maximum peak (mucolytic activity index) [4, 6] [%] | Percentage drop ± s.e. of the tracing versus maximum peak (mucolytic activity index) [4, 7] [%] | Percentage of surviving animals ([5]; 10th day from irradiation) [%] | Percentage of surviving animals ([5]; 15th day from irradiation) [%] | Percentage of surviving animals ([5]; 20th day from irradiation) [%] | Percentage variations of bronchial secretion versus values ([2]; oral 20 mg, 1 hour) | Percentage variations of bronchial secretion versus values ([2]; oral 20 mg, 2 hours) | Percentage variations of bronchial secretion versus values ([2]; oral 20 mg, 4 hours) | Percentage variations of bronchial secretion versus values ([2]; oral 25 mg, 1 hour) | Percentage variations of bronchial secretion versus values ([2]; oral 25 mg, 2 hours) | Percentage variations of bronchial secretion versus values ([2]; oral 25 mg, 4 hours) | Percentage variations of bronchial secretion versus values ([2]; oral 15 mg, 1 hour)
1 | CC(C)COC(=O)CC(C[N+](C)(C)C)OC(=O)C(C)S (stereo not shown) [2-mercapto propionyl carnitine isobutyl ester] | 274 | -0.1% | +0.5% | 25 | 65 | 80.4 ± 7 | 42.8 ± 4 | 85 | 70 | 45 | – | – | – | – | – | – | –
2 | CCOC(=O)CC(C[N+](C)(C)C)OC(=O)CCS (stereo not shown) [3-mercapto propionyl carnitine ethyl ester] | 228 | – | – | 40 | 100 | 79.8 ± 4 | 39.5 ± 5 | 90 | 85 | 60 | +0.6% | +0.8% | +1.0% | – | – | – | –
3 | COC(=O)CC(C[N+](C)(C)C)OC(=O)CCCCS (stereo not shown) [5-mercapto valeryl carnitine methyl ester] | 219 | – | – | 45 | 100 | 90.2 ± 6 | 48.4 ± 4 | 85 | 60 | 40 | +0.3% | +0.5% | +1.0% | – | – | – | –
4 | CCC(S)C(=O)OC(CC(=O)OCC(C)C)C[N+](C)(C)C (stereo not shown) [2-mercapto butyryl carnitine isobutyl ester] | 236 | – | – | 35 | 70 | 95.9 ± 5 | 51.2 ± 3 | 95 | 65 | 50 | – | -0.4% | +0.2% | – | – | – | –
5 | CC(=O)N[C@@H](CS)C(=O)O [Acetylcysteine, acetylcysteine, reference compound] | – | – | – | – | – | 75.6 ± 7 | 23.8 ± 5 | – | – | – | – | – | – | – | – | – | –
6 | CC(C)COC(=O)CC(C[N+](C)(C)C)OC(=O)CCCS (stereo not shown) [4-mercapto butyryl carnitine isobutyl ester] | 231 | – | – | 25 | 75 | – | – | 100 | 75 | 55 | – | – | – | +0.5% | +0.9% | +2.1% | –
7 | CC(C)OC(=O)CC(C[N+](C)(C)C)OC(=O)CS (stereo not shown) [mercapto acetyl carnitine hydrochloride isopropyl-ester] | 250 | +0.7% | +2.1% | 30 | 70 | 82.5 ± 5 | 44.3 ± 3 | 80 | 55 | 30 | – | – | – | – | – | – | +0.5%
